Read-outs that look alike come from different tables or passages of the source. Numbered stars: 1 amine (or outer) side, 2 acyl side, 3 side chain; on linkers, the order of the positions; unused ones are H or OH. Bridge positions count the residues as written; N and C are the ends. Square brackets hold non-standard residues; d marks the D form. Peptide text beside a SMILES is read from it. * marks the point of attachment. C20 diacid = O=C(O)CCCCCCCCCCCCCCCCCCC(=O)*; γGlu = O=C(O)[C@H](CCC(=O)[*:2])N[*:1]; NMeI = CC[C@H](C)[C@H](NC)C(=O)O; Sar = CNCC(=O)O
Molecular target: T1, human calcitonin receptor (hCTR2) (Homo sapiens, UniProt P30988)
T1 construct: expressed in transfected cells
T1 sequence (P30988 25-474): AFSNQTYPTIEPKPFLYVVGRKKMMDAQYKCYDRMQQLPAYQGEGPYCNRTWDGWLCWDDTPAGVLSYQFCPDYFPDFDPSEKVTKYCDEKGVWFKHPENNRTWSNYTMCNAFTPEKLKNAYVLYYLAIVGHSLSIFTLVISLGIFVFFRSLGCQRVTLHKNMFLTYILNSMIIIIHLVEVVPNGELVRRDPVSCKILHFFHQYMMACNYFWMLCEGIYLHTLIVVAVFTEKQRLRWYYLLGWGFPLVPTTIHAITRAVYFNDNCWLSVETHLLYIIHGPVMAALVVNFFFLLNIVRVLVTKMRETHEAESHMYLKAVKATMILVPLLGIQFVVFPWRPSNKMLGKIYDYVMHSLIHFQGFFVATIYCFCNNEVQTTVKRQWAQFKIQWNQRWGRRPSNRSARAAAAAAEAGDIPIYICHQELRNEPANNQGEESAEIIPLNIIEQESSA
Assay: hCTR2 assay: induction of cAMP (AlphaScreen cAMP Assay kit) in COS7 cells expressing hCTR2
Type: cell-based
Text: The cell line COS7, originating from African Green Monkey kidney fibroblast cells, was used for establishment of the stable cell lines described below. The COS7 cellular background was used due to it being RAMP naive, and as such it provides the best available system for testing of the monomeric hCTR and different heterodimeric amylin receptor subtypes functionally generated by introduction of the individual RAMPs.
A cell line expressing the human calcitonin receptor (hCTR2) was generated in the COS7 cellular background as stable clones. In brief, hCTR2 (GI: 4502547) was amplified by PCR using primers encoding terminal restriction sites for subcloning. The 5'-end primers additionally encoded a near Kozak consensus sequence to ensure efficient translation. The fidelity of the DNA encoding the receptor was confirmed by DNA sequencing. The PCR products encoding the receptor were subcloned into a mammalian expression vector containing a neomycin (G418) resistance marker. The mammalian expression vector encoding the receptor was transfected into COS7 cells by a standard liposome transfection method. 48 hours post-transfection, cells were seeded for limited dilution cloning and selected with 1 mg/ml G418 in the culture medium. After 3 weeks, surviving colonies of hCTR2-expressing cells were picked, propagated and tested in the amylin efficacy assay as described in Example 3 below. One hCTR2-expressing clone was chosen for compound profiling.
In vitro activity of test peptides at the hCTR2 and hAMYR3 receptors was assessed by measuring the induction of cAMP following stimulation of the receptor by pramlintide or peptides of the invention using the AlphaScreen® cAMP Assay kit from Perkin-Elmer.
Briefly, COS7 cells expressing hCTR2 (see Example 2, above) were seeded at 30-40,000 cells per well in 96-well microtiter plates coated with 0.01 % poly-L-lysine, and grown for 1 day in culture in 100 µl growth medium [DMEM, 10% FCS, Penicillin (100 IU/ml), Streptomycin (100 µg/ml)]. On the day of analysis, growth medium was removed and the cells were washed once with 200 µl Tyrode buffer [Tyrode's Salts (9.6 g/l), 10 mM HEPES, pH 7.4]. Cells were incubated in 100 µl Tyrode buffer containing increasing concentrations of test peptides, 100 µM IBMX and 0.1% casein for 15 min at 37° C. The reaction was stopped by carefully decanting off the compound/buffer medium and replacing it with lysis/detection buffer (80 µl 0.1 % w/v BSA, 5 mM HEPES, 0.3 % v/v Tween-20 in deionized water). After incubation at room temperature for 10 min., the cAMP content of the resulting cell lysate was estimated according to the AlphaScreen® cAMP Assay manufacturer's instructions. EC50 values and relative efficacy values (in %) compared to reference peptide (Pramlintide) were estimated by computer-aided curve fitting using the 4-parameter logistic (4PL) non-linear model.
The in vitro activity results (expressed as EC50 values) for peptides of the invention and for Pramlintide (reference peptide) are summarized in Table 2, below.

Compound	EC50 (cAMP induction in COS7 cells expressing hCTR2, average of a minimum of 3 determinations, read-out: hCTR2 EC50) [nM]	EC50 [nM]
CC[C@H](C)[C@@H](C(=O)N[C@@H](CC(C)C)C(=O)N[C@@H](CO)C(=O)N[C@@H](CO)C(=O)N[C@H](C(=O)N[C@@H](CC(N)=O)C(=O)N[C@H](C(=O)NCC(=O)N[C@@H](CO)C(=O)N[C@@H](CC(N)=O)C(=O)N[C@H](C(=O)N1CCC[C@H]1C(N)=O)[C@@H](C)O)C(C)C)[C@@H](C)O)N(C)C(=O)[C@H](C)NC(=O)[C@@H](C)NC(=O)[C@H](Cc1ccccc1)NC(=O)[C@H](CC(N)=O)NC(=O)[C@H](CC(N)=O)NC(=O)[C@H](CO)NC(=O)[C@H](CO)NC(=O)[C@H](Cc1c[nH]cn1)NC(=O)[C@H](Cc1c[nH]cn1)NC(=O)[C@H](CC(C)C)NC(=O)[C@H](Cc1ccccc1)NC(=O)[C@H](CCC(=O)O)NC(=O)[C@H](C)NC(=O)[C@H](CC(C)C)NC(=O)[C@H](CCCNC(=N)N)NC(=O)[C@H](CCC(N)=O)NC(=O)[C@@H](NC(=O)[C@H](C)NC(=O)[C@@H]1CSSC[C@H](NC(=O)[C@H](CCCNC(=N)N)NC(=O)CC[C@H](NC(=O)CCCCCCCCCCCCCCCCCCC(=O)O)C(=O)O)C(=O)N[C@@H](CC(N)=O)C(=O)N[C@@H]([C@@H](C)O)C(=O)N[C@@H](C)C(=O)N[C@@H]([C@@H](C)O)C(=O)N1)[C@@H](C)O [Compound 17, [19CD]-isoGlu-RC()NTATC()ATQRLAEFLHHSSNNF-DAla-A-Ile(Me)-LSSTNVGSNTP-NH2] ({C20 diacid-γGlu}-RCNTATCATQRLAEFLHHSSNNF[dA]A[NMeI]LSSTNVGSNTP-NH2; disulfide 2-7)	0.093	
CC[C@H](C)[C@@H](C(=O)N[C@@H](CC(C)C)C(=O)N[C@H](CO)C(=O)N[C@@H](CO)C(=O)N[C@H](C(=O)N[C@@H](CC(N)=O)C(=O)N[C@H](C(=O)NCC(=O)N[C@@H](CO)C(=O)N[C@@H](CC(N)=O)C(=O)N[C@H](C(=O)N1CCC[C@H]1C(N)=O)[C@@H](C)O)C(C)C)[C@@H](C)O)N(C)C(=O)[C@H](C)NC(=O)CN(C)C(=O)[C@H](Cc1ccccc1)NC(=O)[C@H](CC(N)=O)NC(=O)[C@H](CC(N)=O)NC(=O)[C@H](CO)NC(=O)[C@H](CO)NC(=O)[C@H](Cc1c[nH]cn1)NC(=O)[C@H](Cc1c[nH]cn1)NC(=O)[C@H](CC(C)C)NC(=O)[C@H](Cc1ccccc1)NC(=O)[C@H](CCC(=O)O)NC(=O)[C@H](C)NC(=O)[C@H](CC(C)C)NC(=O)[C@H](CCCNC(=N)N)NC(=O)[C@H](CCC(N)=O)NC(=O)[C@@H](NC(=O)[C@H](C)NC(=O)[C@@H]1CSSC[C@H](NC(=O)[C@H](CCCNC(=N)N)NC(=O)CC[C@H](NC(=O)CCCCCCCCCCCCCCCCCCC(=O)O)C(=O)O)C(=O)N[C@@H](CC(N)=O)C(=O)N[C@@H]([C@@H](C)O)C(=O)N[C@@H](C)C(=O)N[C@@H]([C@@H](C)O)C(=O)N1)[C@@H](C)O [Compound 23, [19CD]-isoGlu-RC()NTATC()ATQRLAEFLHHSSNNF-Gly(Me)-A-Ile(Me)-L-DSer-STNVGSNTP-NH2] ({C20 diacid-γGlu}-RCNTATCATQRLAEFLHHSSNNF[Sar]A[NMeI]L[dS]STNVGSNTP-NH2; disulfide 2-7)		0.074
